The text below walks through data of ChEMBL document CHEMBL1201862, “PubChem BioAssay data set” (2004).

Common to all, as to experiment: NCI anticancer screen, dose series, 48 h
For experiment [1], the system named is RXF 393.
In experiment [2] the test system is Hs-578T.
For experiment [3], the system named is SR.
Experiment [4] has as its system DU-145.
The subject of experiment [5] is BT-549.
Experiment [6] relates to SNB-78.
Experiment [7] concerns RXF 631.
For experiment [8], the system named is LXFL 529.

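Cells were grown in 96-well plates and exposed to each compound for 48 hours at five concentrations; endpoints were interpolated linearly between bracketing concentrations, or set to the highest concentration if not reached. GI50 = concentration required for 50% inhibition of growth.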 Activity calls are given as the source filed them. Rule as the data show it: active = GI50 up to about 1.1 µM and inactive = higher.

`C[S+](C)([O-])=Nn1c(=O)n2n(c1=O)[C@H]1CC[C@@H]2C1`: the GI50 in experiment [1], in experiment [2], in experiment [3] and in experiment [4] was > 100 µM (inactive) in each case.

As to `COC(=O)C1=C(OC(=O)/C=C/c2ccc(Cl)cc2)C(C(=O)OC)[C@@]2(O)[C@@H](C(=O)OC)[C@H](C)C[C@@H]1[C@@H]2C(=O)OC` (some centres not stated), the GI50 in experiment [1] is 27.2 µM (inactive); in experiment [2] it was 3.9 µM (inactive); in experiment [4], 39.4 µM (inactive); in experiment [5] it was 21.6 µM (inactive).

For the compound `COc1cc(C2c3cc4c(cc3[C@@H](Nc3cnc5ccccc5c3)C3COC(=O)[C@H]23)OCO4)cc(OC)c1O` (some centres not stated), the GI50 in experiment [1] is 0.912 µM (active); in experiment [6], 2.69 µM (inactive).

Consider `C[C@]12CC[C@H](O)C=C1CC[C@@H]1[C@@H]2CC[C@]2(C)C(c3ccc(=O)oc3)CC[C@]12O` (some centres not stated), for which, in experiment [6], the GI50 is 0.0163 µM (active).

For `COc1cc(C2C(C(=O)O)=C(CO)Oc3cc4c(cc32)OCO4)cc(OC)c1OC` (configuration not stated), the GI50 in experiment [1] was 93.3 µM (inactive); in experiment [6], > 100 µM (inactive); in experiment [7], > 100 µM (inactive).

On to `C=C1C(=O)OC2C1CC1OC2C(C)CCC/C(C)=C\CCC1(C)O` (configuration not stated), for which the results for the GI50 in experiment [1] and in experiment [6] were 5.7 µM (inactive) and 12.1 µM (inactive), respectively.

For the compound `NCCCNCCSSCc1ccccc1CSSCCNCCCN`, the GI50 in experiment [1] was > 100 µM (inactive); in experiment [6], 56.5 µM (inactive); in experiment [7] it was > 100 µM (inactive); in experiment [8] it was 30.4 µM (inactive).

With `NC(=S)N/N=C1\c2ccccc2CCC1CCC1(O)CCc2ccccc2C1=O` (configuration not stated), the GI50 in experiment [1] was 16.2 µM (inactive); in experiment [2], 16.1 µM (inactive); in experiment [3] it was 35.2 µM (inactive); in experiment [4], 37.8 µM (inactive); in experiment [5], 16.4 µM (inactive).

With `CC(NC(C#N)CC12CC3CC(CC(C3)C1)C2)c1ccccc1` (configuration not stated), the GI50 in experiment [3] was 28.4 µM (inactive); in experiment [4] it was 41.8 µM (inactive).

Regarding `O=C(Nc1nc2ccc([N+](=O)[O-])cc2s1)C(=O)C(C(=O)c1ccccc1F)C1OC(=O)c2ccccc21` (configuration not stated), the GI50 was 25.1 µM (inactive) in experiment [6], 16.8 µM (inactive) in experiment [3] and 34 µM (inactive) in experiment [8].

Consider `CCN(CC)CCCNc1ncc(C)c2[nH]c3ccncc3c12`, for which the results for the GI50 in experiment [1] and in experiment [6] were 6.61 µM (inactive) and 19.1 µM (inactive), respectively.

For `COc1ccc(C(=O)/C(Br)=C/C(=O)O)cc1`, the results for the GI50 in experiment [3], in experiment [4] and in experiment [5] were 25.1 µM (inactive), 32 µM (inactive) and 17.9 µM (inactive), respectively.

As for `CC1(C)N=C(N)N=C(N)N1c1ccc(OCCCOc2ccccc2)c(Cl)c1`, the GI50 is 0.479 µM (active) in experiment [1] and 0.538 µM (active) in experiment [6].

Take `CC(=O)C(C(=O)C(=O)Nc1cc(Cl)c(Cl)cc1Cl)c1csc(N)n1` (configuration not stated): the GI50 in experiment [1], in experiment [6], in experiment [3], in experiment [7] and in experiment [8] was > 100 µM (inactive) throughout.

Consider `CN(C)c1ccc(N2C(=S)SC(=N\c3ccccc3)/C2=N/c2ccccc2)cc1`, for which the GI50 is 3.43 µM (inactive) in experiment [1]; > 100 µM (inactive) in experiment [2]; > 100 µM (inactive) in experiment [3]; > 100 µM (inactive) in experiment [4]; > 100 µM (inactive) in experiment [5].
